Measured values from patent US20200237705A1, “METHOD TO TREAT ANTIMICROBIAL RESISTANT CANDIDA” (Hennepin Life Sciences, LLC, priority 2017, published 2020).

Assays:
[1] = test system: C. albicans, C. glabrata, C. krusei, C. parapsilosis, and C. pseudotropicalis; details: in vitro; Strandberg et al. 2010; cited from earlier work
C. auris = experiment: Killing of C. auris clinical isolates by GML alone in Todd Hewitt growth medium (plate counts); type: cell-based, Candida auris; details: two clinical isolates, 37° C., by 8 hours' incubation, limit of detection 10 CFUs/ml
From the text: In a first study performed was to test the ability of GML alone to kill two recent clinical isolates of C. auris (FIG. 1). […] The lower limit of detection of Candida is 10 CFUs/ml for these studies.

Candida = details: women of menstrual age; Strandberg et al. 2010; cited from earlier work

Glycerol monolaurate [GML]
Ability to kill selected Candida species [1]: ability to kill selected Candida species
GML concentrations at which C. auris is killed (significant killing defined as ≥3 logs killing) (C. auris): ≥ 50 μg/ml
Numbers of Candida vaginally in women (Candida): can reduce the numbers of Candida vaginally
